Laboratory results reported in patent publication US8846951B2 (AbbVie Inc., priority 2009, dated 2014).
Like-named read-outs stand apart in the source and are kept apart here.

Assays:
[1] = biological target: T1, 5HT2B receptors (Homo sapiens, UniProt P41595); test: Human 5-HT2B functional high throughput screening assay in CHO-K1 cells (calcium flux); assay type: cell-based; conditions: for EC50: CHO-K1 cells, calcium flux; for Emax: 5-HT2B, maximum functional response as percentage relative to the effect of serotonin
T1 construct: expressed in transfected cells; host or cells: CHO-K1 cells
T1 sequence (P41595 whole entry): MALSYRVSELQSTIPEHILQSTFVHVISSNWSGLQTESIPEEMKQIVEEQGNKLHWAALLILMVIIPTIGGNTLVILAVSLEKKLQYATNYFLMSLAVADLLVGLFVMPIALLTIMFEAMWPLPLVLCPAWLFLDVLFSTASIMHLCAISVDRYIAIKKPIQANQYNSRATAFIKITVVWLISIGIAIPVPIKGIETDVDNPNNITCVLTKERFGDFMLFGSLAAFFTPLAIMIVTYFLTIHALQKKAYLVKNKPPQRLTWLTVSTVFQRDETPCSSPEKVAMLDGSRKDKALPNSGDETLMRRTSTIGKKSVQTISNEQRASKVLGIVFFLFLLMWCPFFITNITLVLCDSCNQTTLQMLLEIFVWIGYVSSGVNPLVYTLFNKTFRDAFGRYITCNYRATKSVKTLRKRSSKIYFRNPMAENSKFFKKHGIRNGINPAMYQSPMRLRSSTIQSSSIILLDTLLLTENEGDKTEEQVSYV
Method in brief: (§1)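 Frozen CHO-K1 cells overexpressing the receptor were plated, serum-starved overnight, then loaded with Ca4 dye plus 2.5 mM probenecid for 60 min at room temperature. FLIPR fluorescence (ex 480/em 530 nm, 25 °C) after compound addition was normalized to serotonin; EC50 and Emax came from 4-parameter logistic fits.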

[2] = biological target: T2, 5HT2C receptors (Homo sapiens, UniProt P28335); test: Human 5-HT2C functional high throughput screening assay in CHO-K1 cells (calcium flux); assay type: cell-based; design: expressed in transfected cells; host or cells: CHO-K1 cells; conditions: for EC50: CHO-K1 cells, calcium flux; for Emax: CHO-K1, 5-HT2C, maximum functional response as percentage relative to the effect of serotonin
T2 sequence (P28335 33-458): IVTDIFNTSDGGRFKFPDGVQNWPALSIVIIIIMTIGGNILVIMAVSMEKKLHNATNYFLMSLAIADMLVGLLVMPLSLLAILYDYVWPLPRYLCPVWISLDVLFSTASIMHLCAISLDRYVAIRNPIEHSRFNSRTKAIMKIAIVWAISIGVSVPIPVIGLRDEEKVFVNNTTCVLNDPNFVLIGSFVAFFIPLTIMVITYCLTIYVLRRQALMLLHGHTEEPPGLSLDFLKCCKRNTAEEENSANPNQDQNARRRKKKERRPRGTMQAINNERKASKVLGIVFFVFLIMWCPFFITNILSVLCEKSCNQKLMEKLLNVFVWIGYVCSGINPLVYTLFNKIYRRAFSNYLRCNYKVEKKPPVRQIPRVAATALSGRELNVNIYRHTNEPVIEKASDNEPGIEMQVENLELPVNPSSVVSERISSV
Method in brief: as §1

[3] = 5-HT2B agonist activity, read-out: EC50
[4] = 5-HT2C agonist activity, read-out: EC50

Row | SMILES | EC50 [1, 3] | Emax [1] | EC50 [2, 4] | Emax ([2]; read-out: Emax) | Emax [2] | EC50 ([1]; EC50, 5-HT2B agonist activity) | EC50 ([2]; EC50, 5-HT2C agonist activity)
1 | CN1C[C@H]2CN(C)C(=O)c3cc(-c4cccc(CCO)c4)ccc3[C@@H]2C1 (relative stereo) [Example 192, Trans-8-(3-(2-hydroxyethyl)phenyl)-2,5-dimethyl-1,2,3,3a,4,5-hexahydrobenzo[e]pyrrolo[3,4-c]azepin-6(10bH)-one] | > 10000 nM | inactive | 8 nM | 120% | – | – | –
2 | CC(O)c1cccc(-c2ccc3c(c2)C(=O)N(C)C[C@@H]2CN(C)C[C@@H]32)c1 (relative stereo) [Example 193, Trans-8-(3-(1-hydroxyethyl)phenyl)-2,5-dimethyl-1,2,3,3a,4,5-hexahydrobenzo[e]pyrrolo[3,4-c]azepin-6(10bH)-one] | > 10000 nM | inactive | 20 nM | > 120% | – | – | –
3 | CN1C[C@H]2CN(C)C(=O)c3cc(-c4cccc(C(C)(C)O)c4)ccc3[C@@H]2C1 (relative stereo) [Example 194, Trans-8-(3-(2-hydroxypropan-2-yl)phenyl)-2,5-dimethyl-1,2,3,3a,4,5-hexahydrobenzo[e]pyrrolo[3,4-c]azepin-6(10bH)-one] | > 10000 nM | inactive | 20 nM | > 120% | – | – | –
4 | CC(C)c1ccc2c(c1)C(=O)NC[C@@H]1CN(C)C[C@@H]21 (relative stereo) [Example 196, Trans-8-isopropyl-2-methyl-1,2,3,3a,4,5-hexahydrobenzo[e]pyrrolo[3,4-c]azepin-6(10bH)-one] | > 10000 nM | inactive | 500 nM | – | 30% | – | –
5 | CC(C)=Cc1ccc2c(c1)C(=O)NC[C@@H]1CN(C)C[C@@H]21 (relative stereo) [Example 197, Trans-2-methyl-8-(2-methylprop-1-enyl)-1,2,3,3a,4,5-hexahydrobenzo[e]pyrrolo[3,4-c]azepin-6(10bH)-one] | – | inactive | – | – | > 120% | > 10000 nM | 3 nM
6 | CN1C[C@H]2CNC(=O)c3cc(C4=CCCC4)ccc3[C@@H]2C1 (relative stereo) [Example 201, Trans-8-cyclopentenyl-2-methyl-1,2,3,3a,4,5-hexahydrobenzo[e]pyrrolo[3,4-c]azepin-6(10bH)-one] | – | inactive | – | – | 120% | > 10000 nM | 100 nM
7 | C=C(c1ccc2c(c1)C(=O)NC[C@@H]1CN(C)C[C@@H]21)C(F)(F)F (relative stereo) [Example 202, Trans-2-methyl-8-(3,3,3-trifluoroprop-1-en-2-yl)-1,2,3,3a,4,5-hexahydrobenzo[e]pyrrolo[3,4-c]azepin-6(10bH)-one] | > 10000 nM | inactive | 400 nM | – | 80% | – | –

Continued, in another order:

Row | EC50 [1, 3] | Emax [1] | EC50 [2, 4] | Emax ([2]; read-out: Emax) | SMILES | Emax [2] | EC50 ([1]; EC50, 5-HT2B agonist activity) | EC50 ([2]; EC50, 5-HT2C agonist activity)
8 | > 10000 nM | inactive | 40 nM | 110% | CC(=O)c1cccc(-c2ccc3c(c2)C(=O)N(C)C[C@@H]2CN(C)C[C@@H]32)c1 (relative stereo) [Example 191, Trans-8-(3-acetylphenyl)-2,5-dimethyl-1,2,3,3a,4,5-hexahydrobenzo[e]pyrrolo[3,4-c]azepin-6(10bH)-one] | – | – | –
9 | > 10000 nM | inactive | 10 nM | > 120% | CN1C[C@H]2CNC(=O)c3cc(-c4ccc5nonc5c4)ccc3[C@@H]2C1 (relative stereo) [Example 195, Trans-8-(benzo[c][1,2,5]oxadiazol-5-yl)-2-methyl-1,2,3,3a,4,5-hexahydrobenzo[e]pyrrolo[3,4-c]azepin-6(10bH)-one] | – | – | –
10 | > 10000 nM | inactive | 9 nM | > 120% | CN1C[C@H]2CNC(=O)c3cc(-c4cccc(C=O)c4)ccc3[C@@H]2C1 (relative stereo) [Example 198, Trans-3-(2-methyl-6-oxo-1,2,3,3a,4,5,6,10b-octahydrobenzo[e]pyrrolo[3,4-c]azepin-8-yl)benzaldehyde] | – | – | –
